According to the NIST ThermoML archive (doi:10.1016/j.jct.2016.03.026):
± gives the expanded uncertainty stated by the source.

Assay: xn = mol fraction of the nth substance listed
Details: 283.15 K, Fluid (supercritical or subcritical phases), Vibrating tube method, x1 = 0.97

O=C=O [carbon dioxide] + CO
Details	mass density [kg/m3]
16550 kPa	963.02 ± 0.8
16575 kPa	963.18 ± 0.8
16600 kPa	963.26 ± 0.8
16625 kPa	963.43 ± 0.8
16650 kPa	963.51 ± 0.8
16675 kPa	963.66 ± 0.8
16700 kPa	963.77 ± 0.8
16725 kPa	963.92 ± 0.8
16750 kPa	964 ± 0.8
16775 kPa	964.16 ± 0.8
16800 kPa	964.28 ± 0.8
16825 kPa	964.4 ± 0.8
16850 kPa	964.49 ± 0.8
16875 kPa	964.65 ± 0.8
16900 kPa	964.79 ± 0.8
16925 kPa	964.88 ± 0.8
16950 kPa	964.99 ± 0.8
16975 kPa	965.14 ± 0.8
17000 kPa	965.28 ± 0.8
17025 kPa	965.37 ± 0.8
17050 kPa	965.46 ± 0.8
17075 kPa	965.62 ± 0.8
17100 kPa	965.75 ± 0.8
17125 kPa	965.87 ± 0.8
17150 kPa	965.97 ± 0.8
17175 kPa	966.11 ± 0.8
17200 kPa	966.25 ± 0.8
17225 kPa	966.36 ± 0.8
17250 kPa	966.51 ± 0.8
17275 kPa	966.6 ± 0.8
17300 kPa	966.7 ± 0.8
17325 kPa	966.85 ± 0.8
17350 kPa	966.97 ± 0.8
17375 kPa	967.09 ± 0.8
17400 kPa	967.17 ± 0.8
17425 kPa	967.31 ± 0.8
17450 kPa	967.41 ± 0.8
17475 kPa	967.57 ± 0.8
17500 kPa	967.66 ± 0.8
17525 kPa	967.82 ± 0.8
17550 kPa	967.9 ± 0.8
17575 kPa	968.06 ± 0.8
17600 kPa	968.15 ± 0.8
17625 kPa	968.24 ± 0.8
17650 kPa	968.4 ± 0.8
17675 kPa	968.48 ± 0.8
17700 kPa	968.64 ± 0.8
17725 kPa	968.78 ± 0.8
17750 kPa	968.88 ± 0.8
17775 kPa	968.98 ± 0.8
17800 kPa	969.12 ± 0.8
17825 kPa	969.25 ± 0.8
17850 kPa	969.37 ± 0.8
17875 kPa	969.46 ± 0.8
17900 kPa	969.6 ± 0.8
17925 kPa	969.69 ± 0.8
17950 kPa	969.8 ± 0.8
17975 kPa	969.94 ± 0.8
18000 kPa	970.08 ± 0.8
18025 kPa	970.18 ± 0.8
18050 kPa	970.31 ± 0.8
18075 kPa	970.43 ± 0.8
18100 kPa	970.52 ± 0.8
18125 kPa	970.66 ± 0.8
18150 kPa	970.8 ± 0.8
18175 kPa	970.91 ± 0.8
18200 kPa	970.99 ± 0.8
18225 kPa	971.16 ± 0.8
18250 kPa	971.25 ± 0.8
18275 kPa	971.39 ± 0.8
18300 kPa	971.48 ± 0.8
18325 kPa	971.57 ± 0.8
18350 kPa	971.73 ± 0.8
18375 kPa	971.85 ± 0.8
18400 kPa	971.98 ± 0.8
18425 kPa	972.05 ± 0.8
18450 kPa	972.17 ± 0.8
18475 kPa	972.3 ± 0.8
18500 kPa	972.43 ± 0.8
18525 kPa	972.54 ± 0.8
18550 kPa	972.62 ± 0.8
18575 kPa	972.76 ± 0.8
18600 kPa	972.9 ± 0.8
18625 kPa	973.03 ± 0.8
18650 kPa	973.11 ± 0.8
18675 kPa	973.21 ± 0.8
18700 kPa	973.35 ± 0.8
18725 kPa	973.46 ± 0.8
18750 kPa	973.6 ± 0.8
18775 kPa	973.72 ± 0.8
18800 kPa	973.84 ± 0.8
18825 kPa	973.96 ± 0.8
18850 kPa	974.07 ± 0.8
18875 kPa	974.17 ± 0.8
18900 kPa	974.28 ± 0.8
18925 kPa	974.41 ± 0.8
18950 kPa	974.55 ± 0.8
18975 kPa	974.63 ± 0.8
19000 kPa	974.74 ± 0.8
19025 kPa	974.9 ± 0.8
19050 kPa	974.98 ± 0.8
19075 kPa	975.08 ± 0.8
19100 kPa	975.18 ± 0.8
19125 kPa	975.31 ± 0.8
19150 kPa	975.44 ± 0.8
19175 kPa	975.52 ± 0.8
19200 kPa	975.66 ± 0.8
19225 kPa	975.76 ± 0.8
19250 kPa	975.85 ± 0.8
19275 kPa	976.02 ± 0.8
19300 kPa	976.1 ± 0.8
19325 kPa	976.18 ± 0.8
19350 kPa	976.34 ± 0.8
19375 kPa	976.42 ± 0.8
19400 kPa	976.53 ± 0.8
19425 kPa	976.66 ± 0.8
19450 kPa	976.74 ± 0.8
19475 kPa	976.85 ± 0.8
19500 kPa	976.99 ± 0.8
19525 kPa	977.1 ± 0.8
19550 kPa	977.22 ± 0.8
